Values of other authors in PubChem BioAssay AID1259409 (Chemical Carcinogenesis Research Information System (CCRIS), 2018).
“And” between values parts separate entries of the source, which are not always exact repeats. Identical values can stand only once.

Test system: rodent chemically induced tumor inhibition, incidence and multiplicity
Assay: CCRIS tumor inhibitor studies
Conditions: Route [Inhibitor]: ORAL, Promoter: NONE USED

Compound	tumour outcome (control, treated, inhibition, significance) (Carcinogen: N-NITROSOBIS(2-OXOPROPYL)AMINE, 60599-38-4, Dose [Inhibitor]: 0.25 MMOL/KG DIET FOR 364 D STARTING 2 WK AFTER LAST CARCINOGEN DOSE (STUDY DURATION: 55 WK), Species: HAMSTER, Strain/Sex: SYRIAN/FEMALE, Target Tissue: Type of Lesion: LIVER: CARCINOMA, Dose [Carcinogen]: 20 MG/KG INJECTION GIVEN TWICE 1 WK APART)	tumour outcome (control, treated, inhibition, significance) (Carcinogen: N-NITROSOBIS(2-OXOPROPYL)AMINE, 60599-38-4, Dose [Inhibitor]: 0.25 MMOL/KG DIET FOR 364 D STARTING 2 WK AFTER LAST CARCINOGEN DOSE (STUDY DURATION: 55 WK), Species: HAMSTER, Strain/Sex: SYRIAN/MALE, Target Tissue: Type of Lesion: LIVER: CARCINOMA, Dose [Carcinogen]: 20 MG/KG INJECTION GIVEN TWICE 1 WK APART)	tumour outcome (control, treated, inhibition, significance) (Carcinogen: N-NITROSOBIS(2-OXOPROPYL)AMINE, 60599-38-4, Dose [Inhibitor]: 0.25 MMOL/KG DIET FOR 364 D STARTING 2 WK AFTER LAST CARCINOGEN DOSE (STUDY DURATION: 55 WK), Species: HAMSTER, Strain/Sex: SYRIAN/MALE, Target Tissue: Type of Lesion: PANCREAS: CARCINOMA, Dose [Carcinogen]: 20 MG/KG INJECTION GIVEN TWICE 1 WK APART)	tumour outcome (control, treated, inhibition, significance) (Carcinogen: N-NITROSOBIS(2-OXOPROPYL)AMINE, 60599-38-4, Dose [Inhibitor]: 0.5 MMOL/KG DIET FOR 209 D STARTING 2 WK AFTER LAST CARCINOGEN DOSE FOLLOWED BY 0.25 MMOL/KG DIET FOR 117 D WITH INTERMI, Species: HAMSTER, Strain/Sex: SYRIAN/FEMALE, Target Tissue: Type of Lesion: LIVER: CARCINOMA, Dose [Carcinogen]: 20 MG/KG INJECTION GIVEN TWICE 1 WK APART)	tumour outcome (control, treated, inhibition, significance) (Carcinogen: N-NITROSOBIS(2-OXOPROPYL)AMINE, 60599-38-4, Dose [Inhibitor]: 0.5 MMOL/KG DIET FOR 209 D STARTING 2 WK AFTER LAST CARCINOGEN DOSE FOLLOWED BY 0.25 MMOL/KG DIET FOR 117 D WITH INTERMI, Species: HAMSTER, Strain/Sex: SYRIAN/FEMALE, Target Tissue: Type of Lesion: PANCREAS: CARCINOMA, Dose [Carcinogen]: 20 MG/KG INJECTION GIVEN TWICE 1 WK APART)	tumour outcome (control, treated, inhibition, significance) (Carcinogen: N-NITROSOBIS(2-OXOPROPYL)AMINE, 60599-38-4, Dose [Inhibitor]: 0.5 MMOL/KG DIET FOR 209 D STARTING 2 WK AFTER LAST CARCINOGEN DOSE FOLLOWED BY 0.25 MMOL/KG DIET FOR 117 D WITH INTERMI, Species: HAMSTER, Strain/Sex: SYRIAN/MALE, Target Tissue: Type of Lesion: LIVER: HEPATOCELLULAR CARCINOMA, Dose [Carcinogen]: 20 MG/KG INJECTION GIVEN TWICE 1 WK APART)	tumour outcome (control, treated, inhibition, significance) (Carcinogen: N-NITROSOBIS(2-OXOPROPYL)AMINE, 60599-38-4, Dose [Inhibitor]: 0.5 MMOL/KG DIET FOR 209 D STARTING 2 WK AFTER LAST CARCINOGEN DOSE FOLLOWED BY 0.25 MMOL/KG DIET FOR 117 D WITH INTERMI, Species: HAMSTER, Strain/Sex: SYRIAN/MALE, Target Tissue: Type of Lesion: PANCREAS: CARCINOMA, Dose [Carcinogen]: 20 MG/KG INJECTION GIVEN TWICE 1 WK APART)	tumour outcome (control, treated, inhibition, significance) (Carcinogen: AZOXYMETHANE, 25843-45-2, Dose [Inhibitor]: 0, 5 MG/G IN DIET FOR 22 WK BEGINNING 3 D POST LAST CARCINOGEN DOSE (STUDY DURATION: 25 WK), Species: RAT, Strain/Sex: F344/MALE, Target Tissue: Type of Lesion: DUODENUM: ADENOCARCINOMA, Dose [Carcinogen]: 15 MG/KG BW 2/WK FOR 3 WK)
CC1=C(/C=C/C(C)=C/C=C/C(C)=C\C(=O)Nc2ccc(OC(=O)C(C)(C)C)cc2)C(C)(C)CCC1	7%, 10%, -43%, not calculated	5%, 25%, -400%, not calculated	34%, 14%, 59%, not calculated and 38%, 28%, 26%, not calculated	5%, 19%, -280%, not calculated	38%, 27%, 29%, not calculated	7%, 19%, -171%, not calculated	34%, 30%, 12%, not significant	–
C=CC(C)(O)CC/C=C(\C)CCC=C(C)C (stereo not drawn)	–	–	–	–	–	–	–	50%, 26%, 48%, not significant
